# Measured values: patent publication US7335665B2, “Spirocyclic piperidines as MCH1 antagonists and uses thereof” (H - Lundbeck A/S, priority 2003, dated 2008)
# Experiments:
# G4F-7 cells = settings: cited from earlier work
# MCH-1 receptor [1] = settings: rat and human MCH-1; cited from earlier work
# MCH-1 receptor [2] = biological target: T1, MCH-1 receptor (Rattus norvegicus, UniProt P97639); settings: in vivo; cited from earlier work
# T1 construct: host or cells: in vivo, endogenous receptor of the animal
# T1 sequence (P97639 whole entry): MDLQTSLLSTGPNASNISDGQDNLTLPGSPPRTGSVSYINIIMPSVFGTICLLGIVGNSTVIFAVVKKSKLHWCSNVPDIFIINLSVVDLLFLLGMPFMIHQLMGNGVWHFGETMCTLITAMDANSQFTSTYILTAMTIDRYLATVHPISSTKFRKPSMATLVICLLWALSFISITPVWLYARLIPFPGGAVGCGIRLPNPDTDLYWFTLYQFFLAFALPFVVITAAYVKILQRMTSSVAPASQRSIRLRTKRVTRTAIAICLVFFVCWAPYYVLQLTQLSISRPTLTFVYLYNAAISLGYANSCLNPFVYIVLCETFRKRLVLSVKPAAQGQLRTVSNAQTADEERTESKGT
# rat MCH1 receptor = biological target: T2, rat MCH1 receptor (Rattus norvegicus, UniProt P97639); assay: Radioligand binding assay at cloned rat MCH1 receptor ([3H]Compound A displacement); settings: KI, cloned rat MCH1, membranes of transfected Peakr293 cells, 0.08 nM [3H]Compound A, 25° C., 90 minutes
# T2 construct: expressed in transfected cells; host or cells: Human embryonic kidney Peak rapid 293 cells (Peakr293), transient, calcium phosphate; membranes
# T2 sequence (P97639 whole entry): as above
# Method in brief: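 Membranes from Peakr293 cells transiently transfected with rat MCH1 receptor were incubated with 0.08 nM [3H]Compound A in 50 mM Tris pH 7.4, 10 mM MgCl2, PMSF, 1,10-phenanthroline and 0.2% BSA, 90 min at 25° C. Bound ligand was collected by filtration; nonspecific binding was defined with […] Compound A.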
compound,measurement,setting,value
"[Phe^13,Tyr^19]-MCH",Kd,"G4F-7 cells; radioiodinated ligand, G4F-7 mouse melanoma cells",0.118 nM
CN(C)CC1CCc2cc(NC(=O)c3ccc(-c4ccc(F)cc4)cc3)ccc2C1 (stereo not drawn) [Example T-226296],affinity for the MCH-1 receptor,MCH-1 receptor [1],5 to 9 nM
same,food intake induced by the intracerebroventricular application of MCH,MCH-1 receptor [2],inhibit food intake
"O=C(NCCCN1CCC2(CCc3ccccc32)CC1)C1(c2ccc(F)cc2)CCCC1 [Example 54, [(4-FLUOROPHENYL)CYCLOPENTYL]-N-(3-(SPIRO[INDANE-1,4′-PIPERIDINE]-10-YL)PROPYL)CARBOXAMIDE]",Ki,rat MCH1 receptor,208 nM
"S=C(NCCCCN1CCC2(CCc3ccccc32)CC1)Nc1cccc2ccccc12 [Example 23, (NAPHTHYLAMINO)[(4-(SPIRO[INDANE-1,4′-PIPERIDINE]-10-YL-BUTYL)AMINO]METHANE-1-THIONE]",Ki,rat MCH1 receptor,818 nM
"native MCH: Melanin-concentrating hormone, cyclic peptide",Ki,"G4F-7 cells; inhibition of radioiodinated [Phe13,Tyr19]-MCH binding",12 nM
